Assays:
[1] = set-up: method as in PMID 14975741; details: previous studies ref 1; cited from earlier work
[2] = tested on: T lymphocytes; test: Cytotoxicity in normal peripheral blood cells, TruCOUNT flow cytometry; type: cell-based, human
Method: Viable peripheral blood leukocytes and bone marrow cells from - 4 - control donors were treated and used as specified above for leukemic cells.
Cells derived from patients or normal donors were exposed for 24 hours to 20, 40, 80, and 160 μM α-bisabolol dissolved in ethanol (1:8 in order to minimize drug volumes), and when appropriate to 3 μM imatinib mesylate (Novartis, Basel, CH), representative of the in vivo active concentration. All cytotoxicity tests were performed in triplicate.
The absolute counts of normal leukocytes sub-populations were measured with TruCOUNT tubes (Becton Dickinson, San Jose, CA) by polychromatic flow cytometry according to the manufacturer's instructions with minor modifications. Peripheral blood and bone marrow cells were cultured with α-bisabolol for 24, 48, 72, 96 and 120 hours. At the end of the culture, 200 μL of sample, a mixture of antibodies (CD45 APC-H7, CD3 PE-Cy7, CD19 PE, CD14 APC for peripheral blood and CD45 APC-H7, CD34 PE, CD33 PE-Cy7 for bone marrow) and 7-amino-actinomycin D (all reagents from Becton Dickinson) for dead cells exclusion were added to the TruCOUNT tubes. After a 15-minute incubation at room temperature, 1 mL lysing reagent (Biosource, Nivelles, BE) was added for 10 minutes. A total of 40,000 beads were acquired on a FACSCanto cytometer (Becton Dickinson). […]

[3] = tested on: leukemic blasts; test: Mitochondrial membrane potential, JC-1 staining; type: cell-based, human; details: 40 μM α-bisabolol, 3 and 5 hours, JC-1, 6 leukemias tested
Method: (§1) Cells resuspended in CM at 1 × 10^6/mL were treated with 40 μM α-bisabolol for 3 or 5 hours at 37°C. They were then washed with pre-warmed CM, 4 μM of the potential sensitive dye JC-1 (5,5',6,6'-tetra-chloro-1,1',3,3'-tetra-ethyl-benz-imidazolyl-carbocyanine iodide, Molecular Probes, Eugene, OR) was added, and they were then placed back into the incubator. After 30 minutes they were washed twice with pre-warmed PBS. An aliquot of each sample was spotted onto a slide, mounted with a coverslip and immediately recorded by an Axio Observer inverted microscope (Zeiss, Gottingen, DE). Visualization of JC-1 monomers (green fluorescence) and JC-1 aggregates (red fluorescence) was done using filter sets for fluorescein and rhodamine dyes (emission 488 and 550 nm respectively). Image captures of random fields using fixed imaging parameters were performed, and previously unviewed areas of cells were captured to avoid photobleaching. Image analysis was done using Axiovision 3 software. The other aliquot of each sample was resuspended in PBS and analyzed using a FACSCalibur cytometer (Becton Dickinson) equipped with a 488 nm argon laser. The emission of JC-1 monomers was detected in Fl-1 using a 530/30 nm bandpass filter, and JC-1 aggregates were detected in Fl-2 using a 585/42 nm bandpass filter. FlowJo 8.8.2 software (Tree Star, Ashland, OR) was used to analyze data.

[4] = tested on: normal lymphocytes; test: Mitochondrial membrane potential, JC-1 staining; type: cell-based, human; details: similar α-bisabolol concentration (40 μM)
Method: as §1

CC(C)=CCC[C@](C)(O)[C@@H]1CC=C(C)CC1 [α-bisabolol]
solubility fraction [1]: 2.5%
IC50 ([2]; Homo sapiens, T-lymphocyte, 24 h, normal peripheral blood T lymphocytes): 59 ± 7 µM
sensitivity to α-bisabolol ([2]; T lymphocytes, 40 μM α-bisabolol over 120 hours): only marginally sensitive
mitochondrial transmembrane potential (ΔΨm) [3]: dissipates the mitochondrial transmembrane potential
mitochondrial transmembrane potential (ΔΨm) [4]: no mitochondrial damage

— PMC3112094, “Pro-apoptotic activity of α-bisabolol in preclinical models of primary human acute leukemia cells” (Journal of Translational Medicine, 2011)
